According to US5470877A, “Uses of perillic acid methyl ester” (Wisconsin Alumni Research Foundation, priority 1994, dated 1995):
pIC50: −log10 of the molar value. Entries after “also recorded” stand apart in the source; their conditions may differ.

How the values were obtained:
[1] = Plasma metabolite identification and quantitation in rats; format: in vivo, Wistar-Furth rat; settings: for DHPA (% total) / DHPAME (% total) / LIM/POH (% total) / PA (% total) / PAME (% total) / mM LIM/POH: plasma
Experimental: Control animals received oil alone. At the chosen time points, rats were anesthetized with ether and blood was collected into heparinized tubes (Heparin (Sigma, Grade II), at 20 mg/ml in 0.9% saline). Plasma was removed following centrifugation and stored at -20° C.
For quantitation of chronic plasma metabolite levels of perillyl alcohol, female WF rats were housed individually and fed fresh diet daily. The afternoon before blood collection, all rats were given approximately 20 grams of the appropriate diet and allowed to eat ad. libitum for 18 hours. Food consumption data was determined the next morning and the rats were bled within 2 hours following food removal.
Briefly, 5 μl of a 10 mM solution of perillaldehyde was added to 50 μl plasma as an internal standard for quantitation. The plasma was mixed with an equal volume of n-butanol:acetonitrile (1:1, v/v), after which another volume of saturated potassium phosphate was added. After vortexing, the samples were centrifuged and the organic layer removed from the top.
Plasma extracts were analyzed using a Hewlett-Packard 5891 gas chromatograph equipped with a flame-ionization detector or a Hewlett-Packard 5890 chromatograph equipped with a 5971A mass-selective detector, both with 30 m Supelco SPB-5 columns. The temperature program was 90° C. for 4 minutes, increasing by 10° C./minute, followed by 15 minutes at 275° C. The split ratio was 1:10 and the linear velocity was 1.1 ml/minute. Standard curves were generated by adding 5 μl rat plasma. Standards were then extracted and analyzed by capillary gas chromatography. The ratio of the terpene peak area/perillaldehyde peak area versus the concentration of terpene in the sample was plotted.

[2] = tested on: M600B cells; test: M600B cell growth inhibition (FIG. 4); format: cell-based; settings: M600B (human) cells
Experimental: NIH3T3 (mouse embryo) cells were obtained from the American Type Culture Collection and were grown in Dulbecco's modified Eagle's medium supplemented with 10% calf serum. M600B immortalized human mammary epithelial cells (Stampfer, M.R., 1985, J. Tissue Culture Methods 9:107-115) were, obtained from Dr. Martha Stampfer and were grown in supplemented HCDB 170 medium (Hammond, et al. (1984) Proc. Natl. Acad. Sci U.S.A. 81:5435-5439), as described previously (Stampfer, et al. (1985) Proc. Natl. Acad. Sci U.S.A. 82:2394-2398; Eldridge, et al. (1989) Cancer Res. 49:4326-4331).
All cells were maintained in 100-mm dishes at 37° C. in a humidified 5% CO2 atmosphere. Viable cells were distinguished from nonviable cells by counting azure II/methylene blue-stained colonies 10 days after the cells were plated at a density of 100 cells per dish. Trypan blue exclusion was measured by incubating cells for 1 min with one drop of trypan blue per 10 ml of cells. Viable (colorless) and nonviable (blue) cells were then counted on a hemocytometer.
(§1) We examined the effect of several of the terpenes on certain types of cell growth. […] Additionally, growth of HT29 (human colon adenocarcinoma) cells was inhibited by 80% by 1 mM perillyl alcohol.

[3] = tested on: human cancer cell lines; test: Growth of human cancer cell lines (NCI Developmental Therapeutics Program, FIG. 5); format: cell-based; settings: various concentrations
Experimental: Various concentrations of perillyl alcohol caused the regression of a number of human cancer cell lines. FIG. 5 is a set of diagrams showing the effects of perillyl alcohol on different cancer cell lines. These experiments were conducted by the National Cancer Institute Developmental Therapeutics Program.

[4] = tested on: rat mammary carcinoma; test: Comparison of dietary perillyl alcohol and perillic acid methyl ester as inducers of rat mammary carcinoma regression; format: in vivo, Wistar-Furth rat; settings: for no regression (tumors) / no response / partial regression >1/2 original diameter (%) / partial regression >1/2 original diameter (tumors) / small regression response / some growth of tumor: 6 weeks
Experimental: Inbred female Wistar-Furth rats were given 50 mg/kg DMBA at 50-55 days of age. Upon development of a mammary tumor with the largest diameter≥10 mm, the rat was assigned to 0.5% perillic acid methyl ester diet and fed ad libitum. The 0.5% perillic acid methyl ester diet (weight compound/weight ground Teklad rat/mouse 4% meal/chow) was prepared fresh every 7-10 days. Fresh diet was given to rats daily. All rats were weighed and palpated weekly. The study was terminated at 6 weeks after initial diet administration. The following tumor regression data was acquired:
We compared the effects of PAME and POH in terms of their ability to regress rat mammary carcinomas. Table 8 records our comparison. In summary, a 0.5% PAME diet was effective, while a 0.5% POH diet was only 10% effective. Diets of 2% POH were roughly 64-70% effective. While 2% POH is tolerated by a mammal, on a practical level PAME is preferred because a lower dose is sufficient.

[5] = tested on: HT29 cells; test: Inhibition of HT29 colon adenocarcinoma cell growth/proliferation; format: cell-based, human
Experimental: as §1

[6] = chronic week 3, 10% LIM or 2% POH diet
[7] = chronic week 5, 10% LIM or 2% POH diet
[8] = chronic week 10, 10% LIM or 2% POH diet
[9] = 0.5% POH diet, first comparison
[10] = 1.0% POH diet, first comparison
[11] = 1.5% POH diet, first comparison
[12] = 2.0% POH diet, first comparison
[13] = 2.0% POH diet, second comparison

C=C(C)[C@@H]1CC=C(CO)CC1 [perillyl alcohol]
parent detection in plasma ([1]; acute gavage, any time point including 30 minutes): not detected at any time point including 30 minutes post-gavage
major metabolite detected ([1]; acute gavage, rat): perillic acid
perillic and dihydroperillic acids in plasma ([1]; acutely administered, rat): detectable at 24 hours post-administration
parent compound in plasma ([1]; chronically fed rats): Neither limonene nor perillyl alcohol was detected
DHPA (% total) ([1]; acute 1 g/kg, 4 hour): 5 % total
DHPAME (% total) ([1]; acute 1 g/kg, 4 hour): < 1 % total
LIM/POH (% total) ([1]; acute 1 g/kg, 4 hour): 0 % total
PA (% total) ([1]; acute 1 g/kg, 4 hour): 71 % total
PAME (% total) ([1]; acute 1 g/kg, 4 hour): 24 % total
mM LIM/POH ([1]; acute 1 g/kg, 4 hour, mean ± SEM): 0.00 ± 0.00 mM
DHPA (% total) [1, 6]: 19 % total
DHPAME (% total) [1, 6]: 2 % total
LIM/POH (% total) [1, 6]: 0 % total
PA (% total) [1, 6]: 69 % total
PAME (% total) [1, 6]: 10 % total
mM LIM/POH [1, 6]: 0 mM
DHPA (% total) [1, 7]: 25 % total
DHPAME (% total) [1, 7]: 3 % total
LIM/POH (% total) [1, 7]: 0 % total
PA (% total) [1, 7]: 62 % total
PAME (% total) [1, 7]: 10 % total
mM LIM/POH [1, 7]: 0 mM
DHPA (% total) [1, 8]: 28 % total
DHPAME (% total) [1, 8]: 4 % total
LIM/POH (% total) [1, 8]: 0 % total
PA (% total) [1, 8]: 59 % total
PAME (% total) [1, 8]: 10 % total
mM LIM/POH [1, 8]: 0 mM
rate of conversion to metabolites ([1]; rat): rapidly metabolized to the same metabolites as limonene; also recorded: more rapidly converted to metabolites than limonene
major plasma metabolites ([1]; rat, 1 g/kg gavage, 4 hours): perillic acid and dihydroperillic acid
minor plasma metabolites ([1]; rat, 1 g/kg gavage, 4 hours): minor levels of these acids' methyl esters
inhibition of cell growth [2]: significantly inhibited cell growth in a dose-dependent manner
effect on human cancer cell growth [3]: inhibited cancer cell growth
no regression (tumors) [4, 9]: 18/20
no response [4, 9]: 1/20
partial regression >1/2 original diameter (%) [4, 9]: 10%
partial regression >1/2 original diameter (tumors) [4, 9]: 2/20
small regression response [4, 9]: 2/20
some growth of tumor [4, 9]: 15/20
no regression (tumors) [4, 10]: 15/20
no response [4, 10]: 2/20
partial regression >1/2 original diameter (%) [4, 10]: 25%
partial regression >1/2 original diameter (tumors) [4, 10]: 5/20
small regression response [4, 10]: 2/20
some growth of tumor [4, 10]: 11/20
no regression (tumors) [4, 11]: 15/21
no response [4, 11]: 7/21
partial regression >1/2 original diameter (%) [4, 11]: 29%
partial regression >1/2 original diameter (tumors) [4, 11]: 6/21
small regression response [4, 11]: 7/21
some growth of tumor [4, 11]: 4/21
no regression (tumors) [4, 12]: 6/20
no response [4, 12]: 1/20
partial regression >1/2 original diameter (%) [4, 12]: 70%
partial regression >1/2 original diameter (tumors) [4, 12]: 14/20
small regression response [4, 12]: 2/20
some growth of tumor [4, 12]: 3/20
no regression (tumors) [4, 13]: 4/11
no response [4, 13]: 2/11
partial regression >1/2 original diameter (%) [4, 13]: 64%
partial regression >1/2 original diameter (tumors) [4, 13]: 7/11
small regression response [4, 13]: 1/11
some growth of tumor [4, 13]: 1/11
effectiveness of diet (%) ([4]; 2% POH diets): 64-70%
weight loss ([4]; rats fed PAME or POH diet): did experience weight loss
regression rate ([4]; rats fed a 1% diet): 55%
Rank order, inhibition of HT-29 tumor cell proliferation ([5]; 1 = greatest inhibition, 5 = least inhibition): 1
pIC50 ([5]; Homo sapiens, HT-29, read-out: IC50 HT29 tumor cell proliferation): 4.30
inhibition at 1000 µM ([5]; Homo sapiens, HT-29, read-out: growth inhibition of HT29 cells): 80%
HT29 cell growth ([5]; colon adenocarcinoma cells): regression of cell growth
